≈ marks a conversion by molar mass, not a printed value.
Tests used:
[1] = tested on: Staphylococcus aureus; assay: Tested for zone of inhibition against Staphylococcus aureus UC3665 (1 mg/mL, 80 microL/12.7 mm); type: functional
[2] = tested on: Bacteroides fragilis; assay: Tested for zone of inhibition against Bacteroides fragilis UC6513 (1 mg/mL, 80 microL/12.7 mm); type: functional
[3] = tested on: Clostridium perfringens; assay: Tested for zone of inhibition against Clostridium perfringens UC6509; type: functional
[4] = tested on: Staphylococcus aureus; assay: Tested for zone of inhibition against Staphylococcus aureus UC6685 (1 mg/mL, 80 microL/6.5 mm); type: functional
[5] = tested on: Staphylococcus epidermidis; assay: Tested for zone of inhibition against Staphylococcus epidermidis UC719 (1 mg/mL, 80 microL/6.5 mm); type: functional
[6] = tested on: Mycobacterium avium; assay: The compound (1 mg/mL, 80 microL/12.7 mm) was tested for zone of inhibition against Mycobacterium avium UC159; Tr = trace; type: functional, organism-based
[7] = tested on: Clostridium perfringens; assay: The compound (1 mg/mL, 80 microL/12.7 mm) was tested for zone of inhibition against Clostridium perfringens UC6509; Tr = trace; type: functional, organism-based
[8] = tested on: Prevotella melaninogenica; assay: Tested in vitro for its antibacterial activity against Bacteroides melaninogenicus UC 6523; type: functional
[9] = tested on: Parabacteroides distasonis; assay: Tested in vitro for its antibacterial activity against Bacteroides distasonis UC6518; type: functional
[10] = tested on: Cutibacterium acnes; assay: Tested in vitro for its antibacterial activity against Propionibacterium acnes UC6564; type: functional
[11] = tested on: Fusobacterium nucleatum; assay: Tested in vitro for its antibacterial activity against Fusobacterium nucleatum UC6324; type: functional
[12] = tested on: Clostridium perfringens; assay: Tested in vitro for its antibacterial activity against Clostridium perfringens UC6509; type: functional
[13] = tested on: Bacteroides thetaiotaomicron; assay: Tested in vitro for its antibacterial activity against Bacteroides thetaiotaomicron UC 9014[clindamycin 2 micro g/mL]; type: functional
[14] = Tested in vitro for its antibacterial activity against Peptococcus variabilis UC6320; type: functional
[15] = tested on: Bacteroides fragilis; assay: Tested in vitro for its antibacterial activity against Bacteroides fragilis UC9370 [clindamycin 1 micro g/mL]; type: functional
[16] = tested on: Escherichia coli; assay: Tested in vitro for its antibacterial activity against Escherichia coli UC9379; type: functional
[17] = tested on: Streptococcus pyogenes; assay: Tsted in vitro for its antibacterial activity against Streptococcus pyogenes UC152; type: functional
[18] = tested on: Staphylococcus aureus; assay: The compound (1 mg/mL, 80 microL/6.5 mm) was tested for zone of inhibition against Staphylococcus aureus UC6685; Tr = trace; type: functional, organism-based
[19] = tested on: Staphylococcus epidermidis; assay: The compound (1 mg/mL, 80 microL/6.5 mm) was tested for zone of inhibition against Staphylococcus epidermidis UC719 (14H -, H: Hazy zone); type: functional
[20] = tested on: Staphylococcus epidermidis; assay: The compound (1 mg/mL, 80 microL/6.5 mm) was tested for zone of inhibition against Staphylococcus epidermidis UC719; Tr = trace; type: functional, organism-based
[21] = tested on: Clostridium perfringens; assay: The compound (1 mg/mL, 80 microL/12.7 mm) was tested for zone of inhibition against Clostridium perfringens UC6509 (33H -, H: Hazy zone); type: functional

| SMILES | Diameter of inhibition zone [1] | Diameter of inhibition zone [2] | Diameter of inhibition zone [3] | Diameter of inhibition zone [4] | Diameter of inhibition zone [5] | further results |
| --- | --- | --- | --- | --- | --- | --- |
| CC(=O)OC/C(C)=C1/CN(C(C)=O)C1=O | 0 mm | 29 mm | 0 mm | 0 mm | 0 mm | – |
| CCCCCC(=O)N1C/C(=C(\C)CF)C1=O | 36 mm | 88 mm | 78 mm | 39 mm | 31 mm | – |
| CCCCCC(=O)N1C/C(=C(/C)COC2CCCCO2)C1=O (centres undefined) | 0 mm | 0 mm | – | 0 mm | 0 diameter mm | – |
| CCCC(=O)OC/C(C)=C1/CN(C(=O)c2ccccc2)C1=O | 16 mm | 0 mm | – | 0 mm | 0 mm | Diameter of inhibition zone [6]: Trace; Diameter of inhibition zone [7]: Trace |
| CCCC(=O)N1C[C@H]([C@@H](C)COC(C)=O)C1=O | 0 mm | 36 mm | 0 mm | 0 mm | 0 mm | – |
| CCCCCC(=O)OC/C(C)=C1/CN(C(=O)CCCCC)C1=O | 0 mm | 0 mm | 0 mm | 0 mm | 0 mm | – |
| CCCCOC(=O)N1C[C@H]([C@H](C)CNC(C)=O)C1=O | 0 mm | 36 mm | 19 mm | 0 mm | 0 mm | – |
| CCCCCC(=O)N1C[C@H]([C@H](C)Cn2nnc(C(=O)OC)c2C(=O)OC)C1=O | 0 mm | 65 mm | – | 0 mm | 0 mm | – |
| CCCCCC(=O)N1C/C(=C(/C)CO)C1=O | 0 mm | 27 mm | 28 mm | 0 mm | 0 mm | Diameter of inhibition zone [6]: Trace |
| C[C@H]1[C@H](NC(=O)/C(=N\OC(C)(C)C(=O)O)c2csc(N)n2)C(=O)N1S(=O)(=O)O [AZTREONAM] | – | – | – | – | – | MIC [8]: 4 µg/mL (≈ 9.19 µM); MIC [9]: 64 µg/mL (≈ 147 µM); MIC [10]: 2 µg/mL (≈ 4.59 µM); MIC [11]: 4 µg/mL (≈ 9.19 µM) |
| CCCCCC(=O)N1C[C@H]([C@H](C)COC(C)=O)C1=O | 36 mm | – | – | 9 mm | 23 mm | – |
| CCC[C@@H]1C[C@@H](C(=O)N[C@@H]([C@H]2O[C@H](SC)[C@H](O)[C@@H](O)[C@H]2O)[C@H](C)Cl)N(C)C1 [CLINDAMYCIN] | 0 mm | 30 mm | 24 mm | 0 mm | 22 mm | MIC [12]: < 0.12 µg/mL; MIC [13]: 4 µg/mL (≈ 9.41 µM); MIC [8]: < 0.12 µg/mL; MIC [9]: < 0.12 µg/mL; Diameter of inhibition zone [6]: Trace; MIC [14]: 1 µg/mL (≈ 2.35 µM); MIC [15]: < 0.12 µg/mL; MIC [10]: < 0.12 µg/mL; MIC [11]: < 0.12 µg/mL |
| CC(=O)OC[C@H](C)[C@H]1CN(C(C)=O)C1=O | 0 mm | 20 mm | 0 mm | 0 mm | 0 mm | – |
| CO[C@@]1(NC(=O)C(C(=O)O)c2ccc(O)cc2)C(=O)N2C(C(=O)O)=C(CSc3nnnn3C)CO[C@@H]21 (some centres undefined) [MOXALACTAM] | – | – | – | – | – | MIC [16]: 0.06 µg/mL (≈ 0.115 µM); MIC [17]: 0.5 µg/mL (≈ 0.961 µM) |
| CCCCCC(=O)N1C/C(=C(\C)Cn2nnc(C(=O)OC)c2C(=O)OC)C1=O | 0 mm | 17 mm | 0 mm | – | 0 mm | Diameter of inhibition zone [18]: Trace |
| CCCC(=O)OC[C@H](C)[C@H]1CN(C(=O)CCC)C1=O | 0 mm | 41 mm | 33 mm | – | – | Diameter of inhibition zone [19]: 14 mm; MIC [12]: > 256 µg/mL; MIC [13]: 128 µg/mL (≈ 475 µM); MIC [8]: 64 µg/mL (≈ 238 µM); MIC [9]: 256 µg/mL (≈ 950 µM); Diameter of inhibition zone [18]: Trace; MIC [14]: 256 µg/mL (≈ 950 µM); MIC [15]: 256 µg/mL (≈ 950 µM); MIC [10]: 64 µg/mL (≈ 238 µM); MIC [11]: 256 µg/mL (≈ 950 µM) |
| CCCCOC(=O)N1C/C(=C(\C)CN=[N+]=[N-])C1=O | 30 mm | 37 mm | 36 mm | 39 mm | 32 mm | – |
| CCCCCC(=O)N1C/C(=C(\C)CN=[N+]=[N-])C1=O | 27 mm | 52 mm | – | 27 mm | 19 mm | – |
| CCCC(=O)N1C/C(=C(\C)COC(C)=O)C1=O | 18 mm | 31 mm | 0 mm | 8 mm | – | Diameter of inhibition zone [20]: Trace |
| CCCCCC(=O)N1C/C(=C(\C)COC(C)=O)C1=O | 19 mm | 30 mm | 0 mm | 12 mm | 7 mm | – |
| CCCC(=O)N1C[C@H]([C@H](C)COC(C)=O)C1=O | 0 mm | 78 mm | – | 0 mm | 0 mm | MIC [12]: > 128 µg/mL; MIC [13]: 64 µg/mL (≈ 265 µM); MIC [8]: 64 µg/mL (≈ 265 µM); MIC [9]: > 128 µg/mL; Diameter of inhibition zone [21]: 33 mm; MIC [14]: 64 µg/mL (≈ 265 µM); MIC [15]: > 128 µg/mL; MIC [10]: 32 µg/mL (≈ 133 µM); MIC [11]: 64 µg/mL (≈ 265 µM) |
| CCCCCC(=O)OC[C@@H](C)[C@H]1CN(C(=O)CCCCC)C1=O | 31 mm | – | – | 24 mm | 8 mm | MIC [12]: 128 µg/mL (≈ 393 µM); MIC [13]: 8 µg/mL (≈ 24.6 µM); MIC [8]: 8 µg/mL (≈ 24.6 µM); MIC [9]: 256 µg/mL (≈ 787 µM); MIC [16]: > 160 µg/mL; MIC [14]: 256 µg/mL (≈ 787 µM); MIC [15]: 8 µg/mL (≈ 24.6 µM); MIC [10]: 4 µg/mL (≈ 12.3 µM); MIC [11]: 16 µg/mL (≈ 49.2 µM); MIC [17]: > 160 µg/mL |
| CCCCCC(=O)N1C[C@H]([C@H](C)CNC(C)=O)C1=O | 19 mm | 76 mm | – | – | – | Diameter of inhibition zone [20]: Trace; Diameter of inhibition zone [18]: Trace |
| CCCC(=O)OC/C(C)=C1/CN(C(=O)CCC)C1=O | 0 mm | 21 mm | 0 mm | 0 mm | 0 mm | – |
| CCCC(=O)N1C/C(=C(/C)COC(C)=O)C1=O | 0 mm | 31 mm | – | 0 mm | 0 mm | – |

Source: ChEMBL document CHEMBL1150488 (1993)
